Assay results as given in US20170107229A1, “SUBSTITUTED TETRAHYDROPYRIDOTHIENOPYRIMIDINES” (BAYER PHARMA AKTIENGESELLSCHAFT, priority 2014, published 2017).

Molecular target: T1, human full-length MKNK1 (Homo sapiens, UniProt Q9BUB5, T385D)
T1 construct: GST (N); purchased Carna Biosciences 02-145; host or cells: insect cells (baculovirus expression system)
Experiment: MKNK1 kinase high ATP assay (TR-FRET)
Type: biochemical
Conditions: high ATP (2 mM final), 15 min preincubation with enzyme, GST-MKNK1 (T344D)
Method in brief: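 GST-tagged human full-length MKNK1 (T344D), insect-cell expressed, preincubated 15 min at 22 °C with compound, then reacted 30 min at 22 °C with 2 mM ATP and 0.06 μM biotinylated peptide (final) in HEPES pH 7.5. Phospho-peptide detected by TR-FRET (665/620 nm ratio) after EDTA stop; normalised to no-inhibitor and no-enzyme controls.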

T1 sequence (Q9BUB5 1-424 isoform Q9BUB5-2 T344D): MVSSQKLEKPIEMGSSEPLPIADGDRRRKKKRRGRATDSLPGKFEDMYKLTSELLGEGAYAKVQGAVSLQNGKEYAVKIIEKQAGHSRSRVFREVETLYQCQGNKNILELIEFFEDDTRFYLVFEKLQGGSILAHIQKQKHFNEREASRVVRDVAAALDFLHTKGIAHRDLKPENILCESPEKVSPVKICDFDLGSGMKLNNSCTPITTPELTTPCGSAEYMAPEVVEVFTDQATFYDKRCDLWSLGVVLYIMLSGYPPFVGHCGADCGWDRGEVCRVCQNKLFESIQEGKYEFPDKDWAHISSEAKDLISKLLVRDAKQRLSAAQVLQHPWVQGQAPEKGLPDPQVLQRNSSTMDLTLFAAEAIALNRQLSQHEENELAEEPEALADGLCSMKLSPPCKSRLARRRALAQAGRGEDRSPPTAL

Row | SMILES | IC50 [nM]
1 | COc1cc2[nH]ncc2cc1Nc1ncnc2sc3c(c12)CCN(CCCN1CCOCC1=O)C3 [Example 87, 4-(3-{4-[(6-Methoxy-1H-indazol-5-yl)amino]-5,8-dihydropyrido[4′,3′:4,5]thieno[2,3-d]pyrimidin-7(6H)-yl}propyl)morpholin-3-one] | 16
2 | COc1cc2[nH]ncc2cc1Nc1ncnc2sc3c(c12)CCN(Cc1cc(C(=O)N(C)C)no1)C3 [Example 88, 5-({4-[(6-Methoxy-1H-indazol-5-yl)amino]-5,8-dihydropyrido[4′,3′:4,5]thieno[2,3-d]pyrimidin-7(6H)-yl}methyl)-N,N-dimethyl-1,2-oxazole-3-carboxamide] | 9
3 | COc1cc2[nH]ncc2cc1Nc1ncnc2sc3c(c12)CCN(CCCN1C[C@@H](C)O[C@@H](C)C1)C3 [Example 89, 7-{3-[(2R,6S)-2,6-Dimethylmorpholin-4-yl]propyl}-N-(6-methoxy-1H-indazol-5-yl)-5,6,7,8-tetrahydropyrido[4′,3′:4,5]thieno[2,3-d]pyrimidin-4-amine] | 3
4 | COc1cc2[nH]ncc2cc1Nc1ncnc2sc3c(c12)CCN(CCCN1CCOCC1)C3 [Example 90, N-(6-Methoxy-1H-indazol-5-yl)-7-[3-(morpholin-4-yl)propyl]-5,6,7,8-tetrahydropyrido[4′,3′:4,5]thieno[2,3-d]pyrimidin-4-amine] | 4
5 | COc1cc2[nH]ncc2cc1Nc1ncnc2sc3c(c12)CCN(Cc1ccn(C)n1)C3 [Example 98, N-(6-Methoxy-1H-indazol-5-yl)-7-[(1-methyl-1H-pyrazol-3-yl)methyl]-5,6,7,8-tetrahydropyrido[4′,3′:4,5]thieno[2,3-d]pyrimidin-4-amine] | 11
6 | COc1cc2[nH]ncc2cc1Nc1ncnc2sc3c(c12)CCN(C(=O)N(C)CCC(F)(F)F)C3 [Example 99, 4-[(6-Methoxy-1H-indazol-5-yl)amino]-N-methyl-N-(3,3,3-trifluoropropyl)-5,8-dihydropyrido[4′,3′:4,5]thieno[2,3-d]pyrimidine-7(6H)-carboxamide] | 2
7 | COc1cc2[nH]ncc2cc1Nc1ncnc2sc3c(c12)CCN(C(=O)NCCC(F)(F)F)C3 [Example 100, 4-[(6-Methoxy-1H-indazol-5-yl)amino]-N-(3,3,3-trifluoropropyl)-5,8-dihydropyrido[4′,3′:4,5]thieno[2,3-d]pyrimidine-7(6H)-carboxamide] | 1
8 | COc1cc2[nH]ncc2cc1Nc1ncnc2sc3c(c12)CCN(C(=O)c1ccno1)C3 [Example 102, {4-[(6-Methoxy-1H-indazol-5-yl)amino]-5,8-dihydropyrido[4′,3′:4,5]thieno[2,3-d]pyrimidin-7(6H)-yl}(1,2-oxazol-5-yl)methanone] | 5

Now from value to compound:

Row | IC50 [nM] | SMILES
9 | 3 | COc1cc2[nH]ncc2cc1Nc1ncnc2sc3c(c12)CCN(C(=O)C1CCCC1)C3 [Example 91, Cyclopentyl{4-[(6-methoxy-1H-indazol-5-yl)amino]-5,8-dihydropyrido[4′,3′:4,5]thieno[2,3-d]pyrimidin-7(6H)-yl}methanone]
10 | 3 | COc1cc2[nH]ncc2cc1Nc1ncnc2sc3c(c12)CCN(C(=O)C1CCCCC1)C3 [Example 92, Cyclohexyl{4-[(6-methoxy-1H-indazol-5-yl)amino]-5,8-dihydropyrido[4′,3′:4,5]thieno[2,3-d]pyrimidin-7(6H)-yl}methanone]
11 | 4 | COc1cc2[nH]ncc2cc1Nc1ncnc2sc3c(c12)CCN(C(=O)N1[C@H](C)COC[C@H]1C)C3 [Example 93, [(3R,5R)-3,5-Dimethylmorpholin-4-yl]{4-[(6-methoxy-1H-indazol-5-yl)amino]-5,8-dihydropyrido[4′,3′:4,5]thieno[2,3-d]pyrimidin-7(6H)-yl}methanone]
12 | 3 | COc1cc2[nH]ncc2cc1Nc1ncnc2sc3c(c12)CCN(C(=O)N1C[C@H](C)O[C@@H](C)C1)C3 [Example 94, [(2S,6S)-2,6-Dimethylmorpholin-4-yl]{4-[(6-methoxy-1H-indazol-5-yl)amino]-5,8-dihydropyrido[4′,3′:4,5]thieno[2,3-d]pyrimidin-7(6H)-yl}methanone]
13 | 3 | COc1cc2[nH]ncc2cc1Nc1ncnc2sc3c(c12)CCN(C(=O)N1C[C@@H](C)O[C@H](C)C1)C3 [Example 95, [(2R,6R)-2,6-Dimethylmorpholin-4-yl]{4-[(6-methoxy-1H-indazol-5-yl)amino]-5,8-dihydropyrido[4′,3′:4,5]thieno[2,3-d]pyrimidin-7(6H)-yl}methanone]
14 | 3 | COc1cc2[nH]ncc2cc1Nc1ncnc2sc3c(c12)CCN(C(=O)N1CCOC[C@H]1C)C3 [Example 96, {4-[(6-Methoxy-1H-indazol-5-yl)amino]-5,8-dihydropyrido[4′,3′:4,5]thieno[2,3-d]pyrimidin-7(6H)-yl}[(3R)-3-methylmorpholin-4-yl]methanone]
15 | 3 | COc1cc2[nH]ncc2cc1Nc1ncnc2sc3c(c12)CCN(C(=O)N1CCOC[C@@H]1C)C3 [Example 97, {4-[(6-Methoxy-1H-indazol-5-yl)amino]-5,8-dihydropyrido[4′,3′:4,5]thieno[2,3-d]pyrimidin-7(6H)-yl}[(3S)-3-methylmorpholin-4-yl]methanone]
16 | 9 | COc1cc2[nH]ncc2cc1Nc1ncnc2sc3c(c12)CCN(C(=O)N1[C@@H](C)COC[C@@H]1C)C3 [Example 101, [(3S,5S)-3,5-Dimethylmorpholin-4-yl]{4-[(6-methoxy-1H-indazol-5-yl)amino]-5,8-dihydropyrido[4′,3′:4,5]thieno[2,3-d]pyrimidin-7(6H)-yl}methanone]
17 | 11 | COc1cc2[nH]ncc2cc1Nc1ncnc2sc3c(c12)CCN(C(=O)c1ccn(C)n1)C3 [Example 103, {4-[(6-Methoxy-1H-indazol-5-yl)amino]-5,8-dihydropyrido[4′,3′:4,5]thieno[2,3-d]pyrimidin-7(6H)-yl}(1-methyl-1H-pyrazol-3-yl)methanone]
